Assays:
α1 -adrenoceptors = assay: α1 antagonistic activity on the isolated anococcygeus muscle of the rat (vs phenylephrine or methoxamine); conditions: agonist phenylephrine or methoxamine, Schild method, 30 min
From the text: The compounds of the invention generally antagonise the α2 -adrenoceptors to a much greater extent than the α1 -adrenoceptors. The α1 antagonistic activity can be evaluated by a number of different methods. One method involves assessing the activity on the isolated anococcygeus muscle of the rat. The method is based on that of Gillespie, Br.J.Pharmac., 1972, 45, 404-416. In the procedure male rats (250-360 g) are killed by a blow on the head and bled. The two anococcygeus muscles are removed from their position in the midline of the pelvic cavity, where they arise from the upper coccygeal vertebrae. The muscles are suspended in 5 ml organ baths in Krebs solution containing 10^-4 M ascorbic acid; to prevent drug oxidation. The tissues are gassed with a 95% oxygen, 5% CO2 mixture and maintained at 37°. Longitudinal muscle contractions are recorded using isotonic transducers. Cumulative dose response curves are then obtained to phenylephrine or in some cases methoxamine, both agents being […] alpha adrenoceptor agonists. The concentration range of phenylephrine or methoxamine used is 0.02 to 0.8 μg.ml^-1. The agonist is then washed from the bath and the test drug added to the bathing medium at a concentration of 10^-6 M. After 30 min equilibration with the test drug a further agonist dose response curve is obtained. […]

α2 -adrenoceptor = assay: α2-adrenoceptor antagonistic activity on the rat field stimulated vas deferens preparation (vs clonidine); conditions: for α2 /α1 selectivity [antilog of (α2 pA2 -α1 pA2)]: from vas deferens α2 pA2 and anococcygeus α1 pA2; for pA2 for α2 -adrenoceptor antagonistic activity: rat field stimulated vas deferens, agonist clonidine, Schild plot, 90 min
Protocol: The compounds of the invention are tested for α2 -adrenoceptor antagonistic activity on the rat field stimulated vas deferens preparation using a modification of the method of Drew, Eur. J. Pharmac., 1977, 42, 123-130. The procedure is described below.
Desheathed vasa deferentia from sexually mature rats were suspended in a 6 ml organ bath in Krebs solution at 37° and bubbled with 5% CO2 in oxygen. Platinum ring electrodes were positioned above and below the tissue for field stimulation, the stimulus parameters being 0.1 Hz 1 ms pulse width at supramaximal voltage. Twitch responses were recorded isotonically with a 0.5 g loading. Clonidine hydrochloride was used as the α-adrenoceptor agonist and cumulative concentration-response curves were constructed for the inhibition of twitch obtained with clonidine in the range 0.125 to 4 ng ml^-1. After washing out clonidine, the twitch response quickly recovered and an antagonist was then introduced into the Krebs reservoir. Clonidine concentration-response curves were repeated 90 min after introduction of the antagonist. The concentration of clonidine producing 50% inhibition of twitch before and after introduction of antagonist were obtained and the dose-ratio for clonidine was calculated. Various concentrations of the antagonists were used.
Chemother., 1959, 14, 48-58 and the values of pA2 and slope were calculated.

| Structure (SMILES) | pA2 values for α1 antagonistic activity (α1 -adrenoceptors) | α2 /α1 selectivity [antilog of (α2 pA2 -α1 pA2)] (α2 -adrenoceptor) | pA2 for α2 -adrenoceptor antagonistic activity (α2 -adrenoceptor) |
| --- | --- | --- | --- |
| CCCS(=O)(=O)N(C)[C@@H]1CCN2CCc3ccsc3[C@@H]2C1 (relative stereo) [Example 2, N-(4,5,8,9,10,10aα-hexahydro-7H-thieno[2,3-a]quinolizin-9β-yl)-N-methylpropanesulphonamide] | 5.9 | 40 | 7.5 |
| CCS(=O)(=O)NCCN([C@@H]1CCN2CCc3ccsc3[C@@H]2C1)S(=O)(=O)CC (relative stereo) [Example 5, N-(4,5,8,9α,10,10aα-Hexahydro-7H-thieno[2,3-a]quinolizin-9-yl)-N-(2-ethanesulphonamidoethyl)ethane sulphonamide] | 5.18 | 132 | 7.31 |

Source: patent publication US4717731A, “7H thieno[2,3-a]quinolizines, useful as α2 -andrenoceptor antagonist” (John Wyeth & Brother Limited, priority 1984, dated 1988)
